# pIC50: −log10 of the molar value. Structures can show the parent of a compound that is named as a salt.
# Key:
# U937 PDE IV = assay: Test procedure No. 3: inhibition of PDE-IV isolated from U937 cells; type: biochemical; conditions: 1 μM [3H]-cAMP; 37° C.; pH 7.8; linear regression of percent inhibition
# [1] = test system: PDE IV isolated from dog tracheal muscle; assay: Test Procedure No. 1: inhibition of PDE IV from canine tracheal muscle (cAMP metabolism); type: biochemical, dog (canine); conditions: 1 μM 3H-cAMP, 10 μM CI-930, 30° C.
# Experimental: A solution containing PDE IV is prepared from canine tracheal muscle as follows:
# The dog is euthanized with an overdose of beuthanasia while under anesthesia induced by a 33 mg/kg IV bolus of Nembutal. The trachealis muscle is removed, cleaned of connective tissue, and minced thoroughly. Three to four grams of tissue is then homogenized in Tris-HCl buffer (pH 7.8) using a Polytron. The homogenate is then centrifuged at 25,000×g (4° C.) for 30 minutes. The supernatant is decanted and filtered through four layers of gauze, and applied to a 40 cm×2 cm DEAE-Sepharose column that is equilibrated with Tris-HCl buffer (pH 7.8). The column is then washed with an additional 240 mL of buffer to remove unbound proteins. PDE is eluted using 450 mL of Tris-HCl buffer containing a linear gradient of 0.0-1.0M Na-acetate (80 mL/hr), and 7.5 mL fractions are collected. Each fraction is assayed for cAMP- and cGMP-metabolizing PDE activity. Fractions eluting at approximately 0.6M Na-acetate, and containing cAMP but not cGMP metabolic activity are pooled and used as a PDE stock solution for assaying PDE IV inhibitory activity.
# CI-930 is included as an inhibitor of the cyclic GMP-sensitive, cyclic AMP-selectivePDE (PDE III) that is also present in the PDE IV stock solution when prepared as described above.
# The two abovementioned PDE IV inhibition tests were used to determine the PDE IV inhibitory abilities of some of the compounds of the present invention.
# PDE IV = assay: Test Procedure No. 2: functional PDE IV inhibition, relaxation of carbachol-precontracted tracheal rings with CI-930; type: cell-based, guinea pig (Male Hartley); conditions: guinea pig tracheal rings precontracted with 1 μM carbachol; CI-930 10 μM; read-out: Test No. 2 IC50 (functional PDE inhibitory test)
# Experimental: The following standard test is also employed to assess the abilities of compounds to inhibit PDE IV functionally.
# Male Hartley guinea pigs (500-550 g, Charles River) were euthanized by a blow to the head, and the tracheas were removed and placed in aerated physiological salt solution (PSS) containing NaCl ([…]), KH2 PO4 ([…]), KCl (4.74 mM), CaCl2 (2.5 mM), MgSO4.7H2 O ([…]), NaHCO3 (25 mM), dextrose (11.1 mM), cocaine and hydrocortisone (3 μM and 10 μM, respectively, to block intraneural and extraneural uptake mechanisms), propranolol and phentolamine (1 μM and 10 μM, respectively, to block adrenoceptors),indomethacin (2.8 μM; to block spontaneous tension generation), and calcium disodium EDTA (26 μM, as an antioxidant). Tracheal rings were prepared and mounted in 10 ml organ baths for the measurement of isometric tension generation as previously described (Heaslip et al., 1986).
# Tracheal relaxation resulting from the inhibition of PDE-IV or PDE-III was assessed by a method similar to that employed by Harris et al. (1989). Tracheal rings were precontracted with 1 μM carbachol until a stable level of tension was obtained (30 min). To explore the inhibition of PDE-IV, tracheal rings were then incubated (45 min) with CI-930 (10 μM), thus inhibiting PDE-III and sensitizing the ring to the relaxant effects of PDE-IV inhibitors. Conversely, the inhibition of tracheal PDE-III was explored using rings pretreated with rolipram (10 μM), and thereby sensitized to PDE-III inhibitors (Harris et al., 1989). The functional inhibition of PDE-IV or PDE-III was determined by adding a test compound to the tissue bath in cumulatively increasing concentrations and monitoring the degree of relaxation induced in the continued presence of CI-930 or rolipram (respectively). After adding the final concentration of test compound to the organ bath, tracheal rings were washed repeatedly with PSS, and allowed to relax to resting tension. Percent relaxations produced by each concentration of test compound were calculated as a percentage relaxation of tension maintained in the presence of the preincubating PDE inhibitor, relative to the final resting tension determined at the end of each experiment.
# The two abovementioned PDE IV inhibition tests were used to determine the PDE IV inhibitory abilities of some of the compounds of the present invention. The table below indicates the compounds tested and the results thereof. For each of Tests 1 and 2, the results are given as IC50 s for the compound tested in M concentrations.
SMILES,pIC50 ([1]; pH 7.8),also measured
"COc1ccc(-c2ccc(C(=O)NCc3cccnc3)cc2)cc1OC1CCCC1 [Comparative Example 1, 3'-Cyclopentyloxy-4'-methoxy-biphenyl-4(3-methylpryridyl) carboxylic acid amide, reference compound]",–,pIC50 (U937 PDE IV): < 6.00
"COc1ccc(-c2ccc(C(=O)O)cc2)cc1OC1CCCC1 [Example 1, 3'-Cyclopentyloxy-4'-methoxy-biphenyl-4-carboxylic acid]",6.61,pIC50 (U937 PDE IV): 6.64
"COc1ccc(-c2ccc(C(N)=O)cc2)cc1OC1CCCC1 [Example 2, 3'-Cyclopentyloxy-4'-methoxy-biphenyl-4-carboxylic acid amide]",7.22,pIC50 (PDE IV): 6.80
"COc1ccc(-c2ccc(C(=O)NN)cc2)cc1OC1CCCC1 [Example 3, 3'-Cyclopentyloxy-4'-methoxy-biphenyl-4-carboxylic acid hydrazide]",7.24,pIC50 (PDE IV): 7.18
"COc1ccc(-c2cccc(C(=O)NN)c2)cc1OC1CCCC1 [Example 4, 3'-Cyclopentyloxy-4'-methoxy-biphenyl-3-carboxylic acid hydrazide]",7.00,–
"COc1ccc(-c2cccc(C(=O)O)c2)cc1OC1CCCC1 [Example 5, 3'-Cyclopentyloxy-4'-methoxy-biphenyl-3-carboxylic acid]",7.64,pIC50 (PDE IV): 7.21
"COc1ccc(-c2ccc(Cl)cc2)cc1OC1CCCC1 [Example 6, 4-Chloro-3'-Cyclopentyloxy-4'-methoxy-biphenyl]",7.00,pIC50 (PDE IV): 4.92
"COc1ccc(-c2cccc(C=O)c2)cc1OC1CCCC1 [Example 8, 3'-Cyclopentyloxy-4'-methoxy-biphenyl-3-carbaldehyde]",7.47,pIC50 (PDE IV): 6.48
"COc1ccc(-c2ccc(C=O)cc2)cc1OC1CCCC1 [Example 9, 3'-Cyclopentyloxy-4'-methoxy-biphenyl-4-carbaldehyde]",7.70,pIC50 (PDE IV): 7.64
"COc1ccc(-c2ccccc2C=O)cc1OC1CCCC1 [Example 10, 3'-Cyclopentyloxy-4'-methoxy-biphenyl-2-carbaldehyde]",7.00,–
"COc1ccc(-c2cccc(C(C)=O)c2)cc1OC1CCCC1 [Example 11, 1-(3'-Cyclopentyloxy-4'-methoxy-biphenyl-3-yl)-ethanone]",8.37,–
"COc1ccc(-c2ccc(C(C)=O)cc2)cc1OC1CCCC1 [Example 12, 1-(3'-Cyclopentyloxy-4'-methoxy-biphenyl-4-yl)-ethanone]",7.07,–
"COc1ccc(-c2ccc(C(=O)c3ccccc3)cc2)cc1OC1CCCC1 [Example 13, (3'-Cyclopentyloxy-4'-methoxy-biphenyl-4-yl)-phenylmethanone]",6.21,–
"COc1ccc(-c2cccc(C#N)c2)cc1OC1CCCC1 [Example 14, 3'-Cyclopentyloxy-4'-methoxy-biphenyl-3-carbonitrile]",7.08,–
"COc1ccc(-c2ccc(N)cc2)cc1OC1CCCC1 [Example 16, 3'-Cyclopentyloxy-4'-methoxybiphenyl-4-ylamine]",6.48,–
"COc1ccc(-c2ccc(C(=O)O)cc2)cc1OC1CCCC1 [Example 17, 3'-Cyclopentyloxy-4'-methoxy-biphenyl-4-carboxylic acid sodium salt]",–,"pIC50 ([1]; pH 7.8, sodium salt): 6.96"
"COC(=O)c1cccc(-c2ccc(OC)c(OC3CCCC3)c2)c1 [Example 18, 3'-Cyclopentyloxy-4'-methoxy-biphenyl-3-carboxylic acid methyl ester]",7.51,pIC50 (PDE IV): 6.64
"COC(=O)c1ccc(-c2ccc(OC)c(OC3CCCC3)c2)cc1 [Example 19, 3'-Cyclopentyloxy-4'-methoxy-biphenyl-4-carboxylic acid methyl ester]",6.24,–
"COc1ccc(-c2ccc3c(c2)CCCC3=O)cc1OC1CCCC1 [Example 20, 6-(3-Cyclopentyloxy-4-methoxy-phenyl)-3,4-dihydro-2H-naphthalen-1-one]",7.23,–
"COc1ccc(-c2ccc3c(c2)CCC/C3=N\O)cc1OC1CCCC1 [Example 21, (E)-6-(3-Cyclopentyloxy-4-methoxy-phenyl)-3,4-dihydro-2H-naphthalen-1-one oxime]",6.54,–
"COc1ccc(-c2ccc(C=NO)cc2)cc1OC1CCCC1 [Example 22, 3'-Cyclopentyloxy-4'-methoxy-biphenyl-4-carbaldehyde oxime]",7.44,pIC50 (PDE IV): 6.85
"COc1ccc(-c2cccc(C=NO)c2)cc1OC1CCCC1 [Example 23, 3'-Cyclopentyloxy-4'-methoxy-biphenyl-3-carbaldehyde oxime]",7.41,pIC50 (PDE IV): 5.72

# Second part, led by results:
pIC50 ([1]; pH 7.8),SMILES,also measured
6.14,"COc1ccc(-c2ccc3c(c2)CCC/C3=N\OC(C)=O)cc1OC1CCCC1 [Example 25, E-6-(3-Cyclopentyloxy-4-methoxy-phenyl)-3,4-dihydro-2H-naphthalen-1-one oxime acetate]",–
6.57,"COc1ccc(-c2ccc(NC(N)=O)cc2)cc1OC1CCCC1 [Example 26, (3'-Cyclopentyloxy-4'-methoxy-biphenyl-4-yl)-urea]",–
6.26,"COc1ccc(-c2cccc(NC(N)=O)c2)cc1OC1CCCC1 [Example 27, (3'-Cyclopentyloxy-4'-methoxy-biphenyl-3-yl)-urea]",–
6.00,"COc1ccc(-c2ccc(NC(C)=O)cc2)cc1OC1CCCC1 [Example 28, N-(3'-Cyclopentyloxy-4'-methoxy-biphenyl-4-yl)-acetamide]",–
6.33,"COc1ccc(-c2cccc(NC(C)=O)c2)cc1OC1CCCC1 [Example 29, N-(3'-Cyclopentyloxy-4'-methoxy-biphenyl-3-yl)-acetamide]",–
7.80,"COc1ccc(-c2cccc(C(N)=O)c2)cc1OC1CCCC1 [Example 30, 3'-Cyclopentyloxy-4'-methoxy-biphenyl-3-carboxylic acid amide]",–
7.00,"COc1ccc(-c2ccc(C(=O)NO)cc2)cc1OC1CCCC1 [Example 31, 3'-Cyclopentyloxy-4'-methoxy-biphenyl-4-carboxylic acid hydroxylamide]",–
5.00,"COc1ccc(-c2ccc(C(=O)O)c(C(=O)O)c2)cc1OC1CCCC1 [Example 32, 3'-Cyclopentyloxy-4'-methoxy-biphenyl-3,4-dicarboxylic acid]",–
5.96,"COC(=O)c1ccc(-c2ccc(OC)c(OC3CCCC3)c2)cc1C(=O)OC [Example 33, 3'-Cyclopentyloxy-4'-methoxy-biphenyl-3,4-dicarboxylic acid dimethyl ester]",–
7.31,"COc1ccc(-c2ccc3c(=O)[nH][nH]c(=O)c3c2)cc1OC1CCCC1 [Example 34, 6-(3'-Cyclopentyloxy-4-methoxyphenyl)-2,3-dihydrophthalizine-1,4-dione]",–
